Key:
[1] = system: C57BL/6J mice at 20 months of age (Old Mice, OM); assay: Tissue weights of soleus and gastrocnemius muscle, age-induced muscle loss; type: in vivo; details: after 4 months administration by gavage, vs OM group
Description: (§1) The healthy and male C57BL/6J mice at 20 months of age (Old Mice, OM) and at 2 months of age (Young Mice, YM) were maintained under the barrier conditions in a temperature-controlled environment and fed a commercial mouse chow. They were divided into the following five groups: (1) non-supplement young mice group (YM, n=5); (2) non-supplement old mice group (OM, n=5); (3)L-Ergothioneine supplement group with low dosage (OM+5 mg/kg/day, n=5); (4) L-Ergothioneine supplement group with moderate dosage (OM+15 mg/kg/day, n=5); and(5) L-Ergothioneine supplement group with high dosage (OM+45 mg/kg/day, n=5). All mice were administered L-Ergothioneine for once daily by gavage in normal saline solution for 4 months. Mice were euthanized by CO2 inhalation followed by cervical dislocation at the end of study and skeletal muscles were excised for an immediate isolation of mitochondria. FIGS. 1A-1D show the test results related to effect of EGT treatment on age-induced muscle loss in mice monthly, particularly regarding body weight measurement (FIG. 1A), lean mass ratio (FIG. 1B), tissue weights of soleus muscle (FIG. 1C), and tissue weights of gastrocnemius muscle (FIG. 1D). Statistical significance was determined using one-way ANOVA followed by Tukey's post hoc test (N=5, *P<0.05, **P<0.01, vs OM Group).

[2] = Body weight and body composition (lean mass ratio) of old mice; type: in vivo, C57BL/6J mice; details: old mice, 5, 15 or 45 mg/kg/day by gavage for 4 months, vs OM group
Description: as §1, with “The bodyweight of C57BL/6 mice was recorded before treatment, once per week during” for “FIGS. 1A-1D show”, “study, and at the end” for “test results related to effect”, “the study. Body composition (lean mass ratio) of” for “EGT treatment on age-induced muscle loss in”, “was analyzed using the (NM42-[…]-1 system, Suzhou Niumag) before treatment, once per month during the study, and at the end” for “monthly, particularly regarding body weight measurement (FIG. 1A), lean mass ratio (FIG. 1B), tissue weights”, “the study. […]” for “soleus muscle (FIG. 1C), and tissue weights of gastrocnemius muscle (FIG. 1D).”

[3] = system: C57BL/6J mice at 20 months of age (Old Mice, OM); assay: Motor coordination on rotating rod (Time to Fall); type: in vivo; details: once daily by gavage for 4 months, vs OM group
Description: as §1, with “Motor coordination deficits were performed by placing” for “FIGS. 1A-1D show”, “mouse on a rotating rod (Beijing Zhishuduobao, DB093) and measuring how long it takes before mice fall off the rod (Time” for “test results related”, “Fall (s)). […]” for “effect of EGT treatment on age-induced muscle loss in mice monthly, particularly regarding body weight measurement (FIG. 1A), lean mass ratio (FIG. 1B), tissue weights of soleus muscle (FIG. 1C), and tissue weights of gastrocnemius muscle (FIG. 1D).”

[4] = system: skeletal muscles mitochondria; assay: ATP production, O2 consumption and P/O ratio in skeletal muscle mitochondria from treated mice; type: in vivo, C57BL/6J mice; details: isolated skeletal muscle mitochondria of old mice treated for 4 months, vs OM group
Description: as §1, with “Extracting skeletal muscles mitochondria from mice to measure ATP production and O2 consumption. ATP production was measured using a luciferase/luciferin based system. O2 consumption was measured using optical spectra. The all data were analyzed to identify” for “FIGS. 1A-1D show”, “L-Ergothioneine function for improving ATP production” for “test results related to effect of EGT treatment on age-induced muscle loss in mice monthly, particularly regarding body weight measurement (FIG. 1A), lean mass ratio (FIG. 1B), tissue weights of soleus muscle (FIG. 1C),”, “O2 consumption. […]” for “tissue weights of gastrocnemius muscle (FIG. 1D).”, “**P<0.01, ***P<0.001” for “**P<0.01,”

[5] = system: C57BL/6J mice at 20 months of age (Old Mice, OM); assay: Forelimb grip strength (grip strength meter); type: in vivo; details: once daily by gavage for 4 months, vs OM group
Description: as §1, with “Forelimb grip strength were analyzed using” for “FIGS. 1A-1D show”, “rip strength meter (Bioseb, BIO-GS3) with mouse-specific wire grid (100×80 mm, angled 90° (vertical)), once per month during the study and at the end” for “test results related to effect”, “the study. […]” for “EGT treatment on age-induced muscle loss in mice monthly, particularly regarding body weight measurement (FIG. 1A), lean mass ratio (FIG. 1B), tissue weights of soleus muscle (FIG. 1C), and tissue weights of gastrocnemius muscle (FIG. 1D).”, “**P<0.01, ***P<0.001” for “**P<0.01,”

C[N+](C)(C)[C@@H](Cc1c[nH]c(=S)[nH]1)C(=O)[O-] [L-Ergothioneine]
weight of the gastrocnemius muscle [1]: prevented this reduction
weight of the soleus muscle [1]: prevented this reduction
body composition (lean mass ratio) [2]: no significant difference
body weight [2]: no significant difference
time on rotating rod (Time to Fall) [3]: prolong time of maintain on a rotating rod
ATP synthesis [4]: increase of ATP synthesis
P/O ratio (ATP produced per O2 consumed) [4]: increase of ATP synthesis and P/O ratio
forelimb grip strength [5]: ameliorating and preventing the loss of muscle grip strength
